Results from publication PMC6234229, “The role of loops B and C in determining the potentiation of GABAA receptors by midazolam” (Pharmacology Research & Perspectives, 2018).
Values joined by “and” are separate entries in the source; they are usually repeats but may differ in a detail not shown here. Equal values may be shown once. Read-outs that look alike come from different tables or passages of the source.

Experiments:
[1] = cited from earlier work
[2] = target: T1, α4(R100H)β2γ2 GABAA receptor (Homo sapiens, UniProt P18507+P47870+P48169, R135H); assay: Midazolam potentiation of EC10 GABA currents, whole-cell patch clamp, HEK293T; format: cell-based
T1 construct: expressed in transfected cells; host or cells: HEK293T

[3] = target: α6(P161T)β2γ2 GABAA receptor (Homo sapiens, UniProt P18507+P47870+Q16445, P180T); conditions: GABA Hill fit
Text: (§1) Human (Homo sapiens) GABAA subunits (α1‐6, β2, γ2s) were subcloned into pcDNA3.1+ vectors with a cytomegalovirus (CMV) promoter. The hβ2 and hα3 sequences were humanized rat (Rattus norvegicus) cDNA with amino acid substitutions made to match the human protein sequence. The α1‐3, α5, β2, and γ2s subunits were a generous gift from Neil L. Harrison (Columbia University Medical Center, NY). The α4 subunit was obtained from GenScript (Piscataway, NJ), and the α6 subunit was a generous gift from Robert L. McDonald (Vanderbilt University, TN). […]
(§2) Human embryonic kidney cells containing the SV40 T‐antigen (HEK293T) were acquired from American Type Culture Collection (ATCC®, Manassas, VA), catalogue number, CRL3216. […] Experiments consisted of at least five cells recorded per day from at least two transfections across 3‐4 days to control for cell health and transfection efficiency. At least three cells expressing wild‐type receptors were recorded on days that mutant receptors were tested to provide a time‐matched expression control. […]
(§3) Extracellular solution contained 161 mM NaCl, 3 mM KCl, 1 mM MgCl2, 1.5 mM CaCl2, 10 mM HEPES, and 6 mM D‐glucose, adjusted to pH 7.4 with NaOH (320‐330 mOsm). […] Whole‐cell currents were recorded at ‐60 mV, filtered at 100 Hz and sampled at 200 Hz with a MultiClamp 700B amplifier (Molecular Devices, LLC) and DigiData 1322A (Molecular Devices, LLC) digitizer. […]

[4] = target: α6(R100H)β2γ2 GABAA receptor (Homo sapiens, UniProt P18507+P47870+Q16445, R119H); conditions: GABA Hill fit
Text: as §1, §2, §3

[5] = target: T2, α5(H105R)β2γ2 GABAA receptor (Homo sapiens, UniProt P18507+P31644+P47870, H136R); assay: GABA concentration-response assay, whole-cell patch clamp, HEK293T; format: cell-based; conditions: GABA Hill fit
T2 construct: expressed in transfected cells; host or cells: HEK293T
Text: (§4) Human (Homo sapiens) GABAA subunits (α1‐6, β2, γ2s) were subcloned into pcDNA3.1+ vectors with a cytomegalovirus (CMV) promoter. The hβ2 and hα3 sequences were humanized rat (Rattus norvegicus) cDNA with amino acid substitutions made to match the human protein sequence. The α1‐3, α5, β2, and γ2s subunits were a generous gift from Neil L. Harrison (Columbia University Medical Center, NY). The α4 subunit was obtained from GenScript (Piscataway, NJ), and the α6 subunit was a generous gift from Robert L. McDonald (Vanderbilt University, TN). All point mutations (listed in Figure 1C) were introduced using the QuikChange Lightening site‐directed mutagenesis kit (Agilent Technologies, Santa Clara, CA) according to the manufacturer's instructions and were confirmed by sequencing (Eurofins MWG Operon, Louisville, KY).
(§5) Human embryonic kidney cells containing the SV40 T‐antigen (HEK293T) were acquired from American Type Culture Collection (ATCC®, Manassas, VA), catalogue number, CRL3216. HEK293T cells were maintained at 37°C and 5% CO2 in Eagle Minimum Essential Medium (MEM) supplemented with 5% fetal bovine serum (Atlanta Biologicals Inc., Flowery Branch, GA), 40 μM L‐glutamine, 100 U/mL penicillin and 0.1 mM streptomycin. Cells were passaged regularly when they reached 70% confluency using trypsin. Cells were not passaged more than 22 times. New cells were revived from frozen stocks at passage 2‐4. Cells used for in vitro electrophysiology experiments were grown on poly‐D‐lysine‐coated glass coverslips (No.2, VWR, Radnor, PA) and transfected with X‐tremeGENE (Roche Diagnostics, Indianapolis, IN) with the desired receptor subunit cDNAs at a 1:1:1 ratio to express αxβ2γ2s receptors (2 μg total cDNA) and with 0.5 μg green fluorescent protein (GFP) as an expression marker. The γ2s incorporation into receptors was tested with zinc inhibition assays regularly.24 Patch clamp experiments were performed on cells at 24‐72 hours post‐transfection. All experiments were performed at 22°C. Experiments consisted of at least five cells recorded per day from at least two transfections across 3‐4 days to control for cell health and transfection efficiency. At least three cells expressing wild‐type receptors were recorded on days that mutant receptors were tested to provide a time‐matched expression control. All reagents were purchased from Sigma‐Aldrich (St. Louis, MO) unless otherwise stated.
(§6) Extracellular solution contained 161 mM NaCl, 3 mM KCl, 1 mM MgCl2, 1.5 mM CaCl2, 10 mM HEPES, and 6 mM D‐glucose, adjusted to pH 7.4 with NaOH (320‐330 mOsm). […] The perfusion system was controlled by protocols written in pClamp 9 (Molecular Devices, LLC., Sunnyvale, CA). Whole‐cell currents were recorded at ‐60 mV, filtered at 100 Hz and sampled at 200 Hz with a MultiClamp 700B amplifier (Molecular Devices, LLC) and DigiData 1322A (Molecular Devices, LLC) digitizer. […] Cells were recorded with the midazolam protocol no more than two times to avoid desensitization and incomplete washout or irreversible modulation.
(§7) Recordings were analyzed using MATLAB (Math Works, Inc., Natick, MA). […] The maximum peak current, EC50 and Hill coefficient were estimated for assays from each cell. When Hill parameters are estimated from whole‐cell recordings, the changes in the parameters across receptor conditions can be ascribed to the following changes in receptor physiology. Changes in maximum current can be due to changes in the single‐channel conductance or the rate of desensitization. Changes in cell surface receptor expression can cause minor changes in maximum current, but are unlikely to occur in the time course of our experimental protocol. […] More often minor changes in the Hill coefficient are attributed to the altered homogeneity in the receptor population expressed by the HEK293T cell. For example, a shallower Hill coefficient could be caused by a shift in the population of receptors from mostly αβγ receptors to a combination of both αβ and αβγ receptors.

[6] = target: T3, α6(N204I)β2γ2 GABAA receptor (Homo sapiens, UniProt P18507+P47870+Q16445, N223I); assay: as above; format: cell-based; conditions: GABA Hill fit
T3 construct: expressed in transfected cells; host or cells: HEK293T
Text: as §4, §5, §6, §7

[7] = target: T4, α4(I204S)β2γ2 GABAA receptor (Homo sapiens, UniProt P18507+P47870+P48169, I239S); assay: as above; format: cell-based; conditions: GABA Hill fit
T4 construct: expressed in transfected cells; host or cells: HEK293T
Text: as §4, §5, §6, §7

[8] = target: T5, α3(H126R)β2γ2 GABAA receptor (Homo sapiens, UniProt P18507+P34903+P47870, H154R); assay: as above; format: cell-based; conditions: GABA Hill fit
T5 construct: expressed in transfected cells; host or cells: HEK293T
Text: as §4, §5, §6, §7

[9] = target: T1, α4(R100H)β2γ2 GABAA receptor; assay: as above; format: cell-based; conditions: GABA Hill fit
Text: as §4, §5, §6, §7

[10] = target: T6, α1(T163P)β2γ2 GABAA receptor (Homo sapiens, UniProt P14867+P18507+P47870, T190P); assay: as above; format: cell-based; conditions: GABA Hill fit
T6 construct: expressed in transfected cells; host or cells: HEK293T
Text: as §4, §5, §6, §7

[11] = target: T7, α1(H102R)β2γ2 GABAA receptor (Homo sapiens, UniProt P14867+P18507+P47870, H129R); assay: as above; format: cell-based; conditions: GABA Hill fit
T7 construct: expressed in transfected cells; host or cells: HEK293T
Text: as §4, §5, §6, §7

[12] = target: T8, α2(H101R)β2γ2 GABAA receptor (Homo sapiens, UniProt P18507+P47869+P47870, H129R); assay: as above; format: cell-based; conditions: GABA Hill fit
T8 construct: expressed in transfected cells; host or cells: HEK293T
Text: as §4, §5, §6, §7

T1 sequence (P48169 36-554 R135H): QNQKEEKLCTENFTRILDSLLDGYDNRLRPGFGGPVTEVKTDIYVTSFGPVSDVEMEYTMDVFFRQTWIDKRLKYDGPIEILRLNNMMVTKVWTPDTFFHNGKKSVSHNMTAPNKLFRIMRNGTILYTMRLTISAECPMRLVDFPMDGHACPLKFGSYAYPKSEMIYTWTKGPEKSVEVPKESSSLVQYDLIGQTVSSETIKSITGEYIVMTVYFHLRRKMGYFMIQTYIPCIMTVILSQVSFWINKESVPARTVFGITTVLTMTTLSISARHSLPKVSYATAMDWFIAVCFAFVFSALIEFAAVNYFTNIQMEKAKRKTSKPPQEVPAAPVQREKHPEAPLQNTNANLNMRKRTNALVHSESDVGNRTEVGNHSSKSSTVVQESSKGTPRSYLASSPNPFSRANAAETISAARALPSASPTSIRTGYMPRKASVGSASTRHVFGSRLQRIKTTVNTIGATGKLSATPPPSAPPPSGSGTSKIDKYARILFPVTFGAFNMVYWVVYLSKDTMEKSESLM
T1 sequence (P47870 26-474 isoform P47870-1 limits assumed, stated change not applied): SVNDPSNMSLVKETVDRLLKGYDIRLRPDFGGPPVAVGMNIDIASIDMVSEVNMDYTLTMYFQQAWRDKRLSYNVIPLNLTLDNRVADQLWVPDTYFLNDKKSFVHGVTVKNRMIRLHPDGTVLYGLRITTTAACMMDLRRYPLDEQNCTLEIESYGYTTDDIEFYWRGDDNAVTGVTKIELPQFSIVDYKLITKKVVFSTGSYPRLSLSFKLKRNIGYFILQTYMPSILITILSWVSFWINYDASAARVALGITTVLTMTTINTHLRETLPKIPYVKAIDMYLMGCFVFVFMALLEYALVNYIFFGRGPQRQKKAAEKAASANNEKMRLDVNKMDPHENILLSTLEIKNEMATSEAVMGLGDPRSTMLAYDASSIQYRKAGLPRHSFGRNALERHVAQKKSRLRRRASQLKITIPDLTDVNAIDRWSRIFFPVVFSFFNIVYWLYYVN
T1 sequence (P18507 40-467 isoform P18507-1 limits assumed, stated change not applied): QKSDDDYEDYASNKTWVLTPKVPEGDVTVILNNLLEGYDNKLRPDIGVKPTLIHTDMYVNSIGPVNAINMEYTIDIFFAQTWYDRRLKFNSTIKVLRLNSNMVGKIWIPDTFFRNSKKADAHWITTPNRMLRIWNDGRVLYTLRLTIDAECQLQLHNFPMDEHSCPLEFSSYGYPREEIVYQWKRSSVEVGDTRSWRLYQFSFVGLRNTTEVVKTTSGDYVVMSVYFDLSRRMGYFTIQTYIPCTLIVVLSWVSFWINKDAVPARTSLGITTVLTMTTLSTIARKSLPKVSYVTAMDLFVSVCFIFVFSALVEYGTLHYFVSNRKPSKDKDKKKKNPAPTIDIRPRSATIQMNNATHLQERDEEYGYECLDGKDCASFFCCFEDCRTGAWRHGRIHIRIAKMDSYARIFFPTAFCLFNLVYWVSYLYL
T2 sequence (P31644 32-462 H136R): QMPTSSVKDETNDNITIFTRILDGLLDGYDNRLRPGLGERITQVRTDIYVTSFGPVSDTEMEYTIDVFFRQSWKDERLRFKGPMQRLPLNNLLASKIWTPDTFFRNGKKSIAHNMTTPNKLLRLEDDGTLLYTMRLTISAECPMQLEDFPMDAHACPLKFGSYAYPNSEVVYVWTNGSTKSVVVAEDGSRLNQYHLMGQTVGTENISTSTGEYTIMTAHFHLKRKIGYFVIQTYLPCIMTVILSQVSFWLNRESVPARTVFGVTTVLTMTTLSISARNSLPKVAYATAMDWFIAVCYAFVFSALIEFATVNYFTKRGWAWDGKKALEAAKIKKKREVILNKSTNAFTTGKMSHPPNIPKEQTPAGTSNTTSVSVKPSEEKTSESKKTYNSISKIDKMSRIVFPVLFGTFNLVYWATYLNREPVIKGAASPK
T2 sequence (P47870 26-474 isoform P47870-1 limits assumed, stated change not applied): as the sequence (P47870 26-474 isoform P47870-1 limits assumed, stated change not applied) above
T2 sequence (P18507 40-467 isoform P18507-1 limits assumed, stated change not applied): as the sequence (P18507 40-467 isoform P18507-1 limits assumed, stated change not applied) above
T6 sequence (P14867 28-456 T190P): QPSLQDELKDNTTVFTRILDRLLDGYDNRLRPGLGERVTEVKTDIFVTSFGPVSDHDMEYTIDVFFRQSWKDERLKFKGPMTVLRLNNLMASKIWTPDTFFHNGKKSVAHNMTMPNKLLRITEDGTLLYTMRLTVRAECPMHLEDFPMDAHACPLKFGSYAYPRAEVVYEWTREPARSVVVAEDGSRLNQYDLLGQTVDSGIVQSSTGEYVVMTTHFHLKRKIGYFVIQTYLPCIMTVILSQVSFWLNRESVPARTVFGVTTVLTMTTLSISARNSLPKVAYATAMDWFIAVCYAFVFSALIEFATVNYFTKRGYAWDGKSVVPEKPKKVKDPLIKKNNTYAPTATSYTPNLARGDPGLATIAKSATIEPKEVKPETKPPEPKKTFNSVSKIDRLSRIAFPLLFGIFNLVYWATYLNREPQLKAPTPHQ
T6 sequence (P47870 25-512 limits assumed): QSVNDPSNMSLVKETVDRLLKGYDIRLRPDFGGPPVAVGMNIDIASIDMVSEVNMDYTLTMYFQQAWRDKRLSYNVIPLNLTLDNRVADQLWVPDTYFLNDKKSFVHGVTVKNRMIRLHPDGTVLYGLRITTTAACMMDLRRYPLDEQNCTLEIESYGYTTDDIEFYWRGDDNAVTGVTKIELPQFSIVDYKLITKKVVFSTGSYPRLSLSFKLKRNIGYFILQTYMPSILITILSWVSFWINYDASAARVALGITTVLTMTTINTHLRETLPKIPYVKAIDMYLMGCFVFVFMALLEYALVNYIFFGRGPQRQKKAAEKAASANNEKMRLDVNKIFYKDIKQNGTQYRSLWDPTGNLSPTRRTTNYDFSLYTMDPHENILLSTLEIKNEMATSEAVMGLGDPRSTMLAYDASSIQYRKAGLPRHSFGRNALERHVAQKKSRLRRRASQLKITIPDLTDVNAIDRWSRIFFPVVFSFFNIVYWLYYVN
T6 sequence (P18507 40-467 isoform P18507-1 limits assumed, stated change not applied): as the sequence (P18507 40-467 isoform P18507-1 limits assumed, stated change not applied) above

SMILES: Cc1ncc2n1-c1ccc(Cl)cc1C(c1ccccc1F)=NC2 [midazolam]
- therapeutically relevant range of midazolam measured from plasma ([1]; anesthetized state): 350 ng/mL and 966 nM
- therapeutically relevant range of midazolam measured from plasma ([1]; postoperative drowsiness): 75 ng/mL and 207 nM
- EC50 [2]: 0.074 ± 0.00344 µM
- Midazolam potentiation (%) ([2]; 10 nM MDZ + EC10 GABA, α4(R100H)): 26.12 ± 4.95%
- Midazolam potentiation (%) ([2]; 50 nM MDZ + EC10 GABA, α4(R100H)): 54.65 ± 8.66%
- Midazolam potentiation (%) ([2]; 100 nM MDZ + EC10 GABA, α4(R100H)): 87.48 ± 13.68%
- Midazolam potentiation (%) ([2]; 500 nM MDZ + EC10 GABA, α4(R100H)): 117.13%
- Midazolam potentiation (%) ([2]; 1000 nM MDZ + EC10 GABA, α4(R100H)): 125.77%
- Max potentiation (%) ([2]; α4(R100H), Hill fit, midazolam 10-1000 nM + EC10 GABA): 113.8 ± 21.6%
- Hill coefficient ([2]; α4(R100H), midazolam Hill fit): 1.187 ± 0.150

SMILES: NCCCC(=O)O [GABA, γ‐aminobutyric acid]
- Max Current (pA) [3]: -3540 ± 290.2 pA
- Max Current (pA) [4]: -2902 ± 349.5 pA
- Hill coefficient [5]: 1.269 ± 0.084
- Max Current (pA) [5]: -6799 ± 919.2 pA
- Max Current (pA) [6]: -3549 ± 408.6 pA
- Hill coefficient [7]: 1.180 ± 0.072
- Max Current (pA) [7]: -3424 ± 394.5 pA
- Hill coefficient [8]: 1.519 ± 0.88
- Max Current (pA) [8]: -3597 ± 343.6 pA
- Hill coefficient [9]: 1.215 ± 0.079
- Max Current (pA) [9]: -3049 ± 378.6 pA
- Hill coefficient [10]: 1.230 ± 0.049
- Max Current (pA) [10]: -2449 ± 376.1 pA
- Hill coefficient [11]: 1.255 ± 0.097
- Max Current (pA) [11]: -3175 ± 444.3 pA
- Hill coefficient [12]: 1.443 ± 0.092
- Max Current (pA) [12]: -3186 ± 390.8 pA
